Measured values taken from US20110086862A1, “POLYMORPHS OF PARDOPRUNOX” (priority 2009, published 2011).

What was measured:
[1] = Stability tests: relative stability from ageing and slurry experiments; format: physicochemical; details: for Relative stability of the polymorphs: at the applied experimental conditions (ageing and slurry), hydrochloride; for Conversion from β- to α-polymorph: ageing and slurry, ambient temperature and 50° C.
Protocol: (§1) Relative stability of the α- and β-polymorphs of pardoprunox were determined by ageing and slurry experiments in six different solvents. The crystal modification of the solid material was determined using XRPD. For mixtures, amounts of α and β were determined using semi-quantitative calculations, based on the ratio of peak heights of specific reflections of the α- and β-polymorphs, respectively. A peak at 23.3° 2θwas used for α-polymorphs, and one at 15.3° 2θfor β-polymorphs. Due to effects of sample preparation, crystal orientation and differences in response factors, this estimation is semi-quantitative.
(§2) For ageing experiments, two series of saturated solutions of a specific polymorphic (α or β) form were shaken at 375 rpm, for one week, in six different solvents, one series at ambient temperature (ca. 20° C.) and one at 50° C. 40 ml tubes were filled with 0.5 g of the appropriate polymorphic form, and 25 ml of solvent (or mixture). After a week the precipitate was filtered and dried at ambient temperature under reduced pressure.
(§3) For slurry experiments, two series of saturated solutions of a specific polymorphic (α or β) form were shaken at 375 rpm for one day in six different solvents, one series at ambient temperature and one at 50° C. 40 ml tubes were filled with 0.5 g of the appropriate polymorphic form, and 25 ml of solvent (or mixture). After 1 day about 2.5 ml of sample was taken from each tube, filtered and dried at ambient temperature under reduced pressure. Subsequently the crystal modification was determined. After the samples were taken each tube was seeded with 15-20 mg of the other polymorphic form. Then, all tubes were shaken for 1 week at 375 rpm at ambient temperature or at 50° C. Finally, the precipitate was filtered and dried at ambient temperature under reduced pressure and the crystal modification was determined.

[2] = Slurry experiments of α- and β-polymorphs (crystal modification by XRPD); format: physicochemical; details: for Crystal modifications by XRPD, slurry experiment: before/after seeding not distinguished; for Crystal modifications by XRPD, slurry experiment, after seeding: seeded with 15-20 mg of the other form, shaken 1 week; for Crystal modifications by XRPD, slurry experiment, before seeding: shaken 1 day
Protocol: as §1, §3

[3] = Ageing experiments of α- and β-polymorphs (crystal modification by XRPD); format: physicochemical; details: shaken one week
Protocol: as §1, §2

[4] = biological target: dopamine-D2 receptor (Homo sapiens, UniProt P14416); details: cited from earlier work
Sequence of dopamine-D2 receptor (P14416 whole entry, species assumed): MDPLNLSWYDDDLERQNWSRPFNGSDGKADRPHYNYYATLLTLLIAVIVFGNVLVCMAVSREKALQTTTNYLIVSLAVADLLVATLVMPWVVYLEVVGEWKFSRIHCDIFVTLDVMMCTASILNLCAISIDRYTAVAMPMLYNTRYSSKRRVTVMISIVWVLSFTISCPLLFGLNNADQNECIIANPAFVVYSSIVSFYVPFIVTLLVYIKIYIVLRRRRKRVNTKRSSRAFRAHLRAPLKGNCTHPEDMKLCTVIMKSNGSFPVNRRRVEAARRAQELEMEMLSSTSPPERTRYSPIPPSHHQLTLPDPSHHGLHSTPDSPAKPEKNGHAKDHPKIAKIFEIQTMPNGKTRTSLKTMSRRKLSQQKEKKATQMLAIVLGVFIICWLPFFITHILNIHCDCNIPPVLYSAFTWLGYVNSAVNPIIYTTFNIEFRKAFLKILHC

[5] = biological target: T1, serotonin 5-HT1A receptor (Homo sapiens, UniProt P08908); details: cited from earlier work
T1 sequence (P08908 1-422): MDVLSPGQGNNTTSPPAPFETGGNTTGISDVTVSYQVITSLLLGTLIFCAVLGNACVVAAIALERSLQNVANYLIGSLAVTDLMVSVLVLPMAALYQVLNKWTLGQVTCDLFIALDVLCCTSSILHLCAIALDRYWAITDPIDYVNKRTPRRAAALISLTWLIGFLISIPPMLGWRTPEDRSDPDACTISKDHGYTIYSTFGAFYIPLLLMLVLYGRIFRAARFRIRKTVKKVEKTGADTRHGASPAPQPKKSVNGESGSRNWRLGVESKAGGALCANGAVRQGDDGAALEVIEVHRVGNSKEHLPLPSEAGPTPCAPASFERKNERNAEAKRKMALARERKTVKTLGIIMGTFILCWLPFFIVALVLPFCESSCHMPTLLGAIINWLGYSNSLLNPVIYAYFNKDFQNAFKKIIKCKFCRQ

[6] = toluene/methanol (10:3), 50° C.
[7] = toluene/methanol (10:3), ambient

CN1CCN(c2cccc3[nH]c(=O)oc23)CC1.Cl [α-polymorph, 7-[(4-methyl)-1-piperazinyl]-2(3H)-benzoxazolone hydrochloride]
Conversion from α- to β-polymorph ([1]; ageing and slurry experiments, all solvents): Neither in ageing nor in slurry experiments, was conversion from α- to β-polymorph observed
Relative stability of the polymorphs ([1]; listed as a-polymorph): more stable than the β-polymorph
Relative stability of the polymorphs ([1]; listed as crystal modification a): more stable than crystal modification β
Crystal modifications by XRPD, slurry experiment ([2]; 1,2-dimethoxy ethane, 50° C.): α
Crystal modifications by XRPD, slurry experiment ([2]; 1,2-dimethoxy ethane, ambient): α
Crystal modifications by XRPD, slurry experiment ([2]; 96% ethanol, 50° C.): α
Crystal modifications by XRPD, slurry experiment ([2]; acetonitrile, 50° C.): α
Crystal modifications by XRPD, slurry experiment ([2]; acetonitrile, ambient): α
Crystal modifications by XRPD, slurry experiment ([2]; ethyl acetate/isopropanol (2:1), 50° C.): α
Crystal modifications by XRPD, slurry experiment ([2]; ethyl acetate/isopropanol (2:1), ambient): α
Crystal modifications by XRPD, slurry experiment ([2]; methyl ethyl ketone, 50° C.): α
Crystal modifications by XRPD, slurry experiment ([2]; methyl ethyl ketone, ambient): α
Crystal modifications by XRPD, slurry experiment [2, 6]: α
Crystal modifications by XRPD, slurry experiment [2, 7]: α
Crystal modifications by XRPD after ageing ([3]; 1,2-dimethoxy ethane, 50° C., hydrochloride): α
Crystal modifications by XRPD after ageing ([3]; 1,2-dimethoxy ethane, ambient, hydrochloride): α
Crystal modifications by XRPD after ageing ([3]; 96% ethanol, 50° C.): α
Crystal modifications by XRPD after ageing ([3]; acetonitrile, 50° C., hydrochloride): α
Crystal modifications by XRPD after ageing ([3]; acetonitrile, ambient, hydrochloride): α
Crystal modifications by XRPD after ageing ([3]; ethyl acetate/isopropanol (2:1), 50° C., hydrochloride): α
Crystal modifications by XRPD after ageing ([3]; ethyl acetate/isopropanol (2:1), ambient, hydrochloride): α
Crystal modifications by XRPD after ageing ([3]; methyl ethyl ketone, 50° C., hydrochloride): α
Crystal modifications by XRPD after ageing ([3]; methyl ethyl ketone, ambient, hydrochloride): α
Crystal modifications by XRPD after ageing [3, 6]: α
Crystal modifications by XRPD after ageing [3, 7]: α

CN1CCN(c2cccc3[nH]c(=O)oc23)CC1.Cl [β-polymorph, 7-[(4-methyl)-1-piperazinyl]-2(3H)-benzoxazolone hydrochloride]
Conversion from β- to α-polymorph ([1]; acetonitrile): substantial conversion
Conversion from β- to α-polymorph ([1]; ethanol and 10:3 toluene/methanol mixture): complete conversion
Conversion from β- to α-polymorph ([1]; other solvents): the conversion was minimal
Crystal modifications by XRPD, slurry experiment, after seeding ([2]; 96% ethanol, 50° C.): α
Crystal modifications by XRPD, slurry experiment, before seeding ([2]; 96% ethanol, 50° C.): α
Crystal modifications by XRPD, slurry experiment, after seeding ([2]; 96% ethanol, ambient): α
Crystal modifications by XRPD, slurry experiment, before seeding ([2]; 96% ethanol, ambient): α
Crystal modifications by XRPD, slurry experiment, after seeding ([2]; acetonitrile, 50° C.): α
Crystal modifications by XRPD, slurry experiment, after seeding [2, 6]: α
Crystal modifications by XRPD, slurry experiment, before seeding [2, 6]: α
Crystal modifications by XRPD, slurry experiment, after seeding [2, 7]: α
Crystal modifications by XRPD after ageing ([3]; 96% ethanol, 50° C.): α
Crystal modifications by XRPD after ageing ([3]; 96% ethanol, ambient (ca. 20° C.), hydrochloride): α
Crystal modifications by XRPD after ageing [3, 6]: α
Crystal modifications by XRPD after ageing [3, 7]: α

CN1CCN(c2cccc3[nH]c(=O)oc23)CC1.Cl [pardoprunox, 7-(4-methyl-1-piperazinyl)benzoxazol-2(3H)-one mono-hydrochloride]
Functional activity at dopamine-D2 receptor [4]: partial dopamine-D2 receptor agonist
Functional activity at serotonin 5-HT1A receptor [5]: full serotonin 5-HT1A receptor agonist
